The term kinact/KI denotes the maximal inactivation rate divided by the concentration that gives half of it.

For this test, the target named is T1, Thrombin-activated human FXIIIa (Homo sapiens, UniProt P00488).
T1 construct: purchased Zedira GmbH T070
T1 sequence (P00488 39-732 limits assumed): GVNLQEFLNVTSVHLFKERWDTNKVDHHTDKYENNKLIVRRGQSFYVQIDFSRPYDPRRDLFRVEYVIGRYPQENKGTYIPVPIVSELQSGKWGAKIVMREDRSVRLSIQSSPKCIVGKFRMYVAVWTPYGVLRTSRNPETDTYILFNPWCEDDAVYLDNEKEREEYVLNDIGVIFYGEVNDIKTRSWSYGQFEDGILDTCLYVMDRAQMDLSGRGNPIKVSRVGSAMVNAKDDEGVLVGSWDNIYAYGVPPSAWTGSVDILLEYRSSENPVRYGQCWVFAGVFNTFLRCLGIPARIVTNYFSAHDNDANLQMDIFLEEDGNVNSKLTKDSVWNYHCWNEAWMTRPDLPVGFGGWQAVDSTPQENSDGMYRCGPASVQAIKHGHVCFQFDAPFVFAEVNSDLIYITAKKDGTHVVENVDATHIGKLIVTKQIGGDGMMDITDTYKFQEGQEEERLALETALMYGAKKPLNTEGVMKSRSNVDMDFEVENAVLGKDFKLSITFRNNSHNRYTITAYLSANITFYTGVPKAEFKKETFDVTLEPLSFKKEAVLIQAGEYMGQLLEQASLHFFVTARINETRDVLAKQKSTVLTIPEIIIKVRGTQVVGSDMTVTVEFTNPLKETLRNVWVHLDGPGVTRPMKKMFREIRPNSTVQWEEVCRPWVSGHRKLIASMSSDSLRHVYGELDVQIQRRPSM
As to the kind of experiment: Fluorescence-quenched A101 isopeptidase assay of FXIIIa inhibition kinetics. To be noted: for FXIIIa Inh. Mode: Rev = reversible, Irrev = irreversible, None = no inhibition detected up to 200 μM; for Selectivity: isozyme favoured, FXIIIa vs TG2, FXIIIa as the favoured isozyme; for selectivity for FXIIIa over TG2: from kinact/KI against FXIIIa and TG2. It counts as biochemical. On the procedure:
All inhibitors synthesised herein were evaluated for inhibition against FXIIIa, using the fluorescence-quenched A101 isopeptidase assay, and against TG2, using the colorimetric AL5 transamidase assay. The assay substrates A101 and AL5 both present labile bonds that are cleaved by the activities of their corresponding transglutaminases, resulting in the release of a fluorophore or chromophore moiety, respectively. The rate of consumption of these assay substrates, indicated by increases in fluorescence or absorbance over time, can be detected for measuring enzyme activity. Assays were run in duplicate at constant reporter substrate concentration with varying concentrations of inhibitor. The type of inhibition was determined through visual inspection of the fluorescence-time curvature; termination of the enzymatic reaction with the substrate at a plateau lower than the no-inhibitor positive control is indicative of irreversible inhibition. On the other hand, convergence to a common plateau indicates reversible inhibition.
Irreversibility was tested further through substrate spike experiments. As shown in Supplementary Materials Figures S1–S3, an additional substrate was added to inhibited and uninhibited enzyme reactions after the completion of the positive control reaction. […] Analysis was carried out through corrected Dixon modelling in the case of reversible kinetics, to obtain Ki values (Figure 5B), and hyperbolic saturation modelling was used to obtain kinact and KI for inhibitors showing irreversibility (Figure 5E). For cases in which the tested inhibitor concentrations were not high enough to reach saturation, a linear regression provided an estimate of the inhibitor’s kinact/KI ratio (Figure 5D). Further details concerning data collection and analysis are provided in the Materials and Methods section.
A previously reported fluorescence-quenched isopeptidase assay using the commercially available substrate A101 (Zedira GmbH, Darmstadt, Germany) was employed for the determination of FXIIIa inhibition kinetics. All assays were performed at 37 °C on 96-well plates, with fluorescence (excitation at 313 nm, emission at 418 nm) measured continuously using a BioTek Synergy 4 plate reader. For each inhibitor, duplicate trials were run in parallel at 4 inhibitor concentrations, along with duplicate positive controls (no inhibitor) and negative controls (no enzyme and no inhibitor). First, 125 μL of aqueous buffer 1 (111 mM Tris, 16.7 mM CaCl2, 333 mM NaCl, pH 7.5) and 18 μL of aqueous buffer 2 (55.6 mM TCEP, 149 mM H-Gly-OMe, pH 7.5) were added to each well, along with 5 μL of A101 stock solution (4000 μM in DMSO). Next, the appropriate amount of the desired inhibitor, dissolved in DMSO, was added, in addition to the amount of distilled water necessary to reach a total volume of 180 μL in each well. Negative controls were diluted to a final volume of 200 μL. Thrombin-activated human FXIIIa (T070, Zedira GmbH, Darmstadt, Germany), stored at −80 °C in 20-μL aliquots (1 mg/mL enzyme) of storage buffer (50.0 mM Tris, 1.00 mM TCEP, 150 mM NaCl, pH 7.5) was warmed to room temperature and diluted to 0.0741 mg/mL through the addition of 250 μL of storage buffer. The diluted enzyme solution was then aliquoted into 10 separate PCR tubes. The assay plate and enzyme tubes were subsequently incubated at 37 °C for 10 min. After the completion of the incubation period, 20 μL of diluted FXIIIa solution was added from each PCR tube to all wells in the plate excluding the negative controls using a multi-channel pipette. This produced a final volume of 200 μL per well, with final reaction conditions of pH 7.5, 74.4 mM Tris, 10.4 mM CaCl2, 223 mM NaCl, 5.10 mM TCEP, 13.4 mM H-Gly-OMe, 100 μM A101, and 7.41 μg/mL (94 nM) FXIIIa. The range of inhibitor concentrations tested spanned from 1 to 200 μM, and the final DMSO concentration in the reaction mixture was kept below 10% v/v. […]

Where [1] appears, read: peptidic series, corrected Dixon plot, α = 13.5, read-out: FXIIIa Ki or KI: Ki of reversible inhibitors.
Where [2] appears, read: small molecule series, reversible, Dixon plot, Interference = data afflicted by fluorescence interference.
The mark [3] stands for this setting: small molecule series, reversible, Dixon plot, Interference = data afflicted by fluorescence interference, read-out: FXIIIa Ki.
The mark [4] stands for this setting: dansyl and sulfonyl-naphthalene compounds, data afflicted by fluorescence interference and set aside, read-out: FXIIIa apparent Ki (interference).

Entries after “also recorded” stand apart in the source; their conditions may differ. Read-outs that look alike come from different tables or passages of the source. Starred links: 1 amine or outer side, 2 acyl side, 3 side chain; linkers in the order of their positions; H or OH if unused. Non-standard residues stand in square brackets, D forms with d. Residues, ends and D or L forms follow the SMILES beside them. *: point of attachment. RhodamineB = CCN(CC)c1ccc2c(-c3ccccc3C(=O)*)c3ccc(=[N+](CC)CC)cc-3oc2c1; X1 = COC(=O)/C=C/CC[C@H](N[*:1])C(=O)[*:2]; X2 = COC(=O)C=CCCC[C@H](N[*:1])C(=O)[*:2]; X3 = COC(=O)C=CC[C@H](N[*:1])C(=O)[*:2]; Nle = CCCC[C@H](N)C(=O)O; Orn = NCCC[C@H](N)C(=O)O; Dab = NCC[C@H](N)C(=O)O; Acryloyl = C=CC(=O)*; Ahx = NCCCCCC(=O)O

On to `C=CC(=O)NCC[C@H](NC(=O)[C@@H](CC(=O)O)NC(C)=O)C(=O)N[C@@H](CCCC)C(=O)N[C@@H](CCCC)C(=O)N[C@@H](CC(C)C)C(=O)N1CCC[C@H]1C(=O)N[C@@H](Cc1c[nH]c2ccccc12)C(=O)N1CCC[C@H]1C(=O)O` [Compound 12, Ac-D-Asp-Dab(Acrylamide)-Nle-Nle-Leu-Pro-Trp-Pro-OH] (Ac-[dD][Dab](Acryloyl)[Nle][Nle]LPWP-OH), for which the “FXIIIa Inh. Mode” value is “Rev” and the Selectivity result is listed as “FXIIIa”. Under setting [1], the Ki was found to be 193 ± 20 µM.

Turning to `C=CC(=O)NCCC[C@H](NC(=O)[C@@H](CC(=O)O)NC(C)=O)C(=O)N[C@@H](CCCC)C(=O)N[C@@H](CCCC)C(=O)N[C@@H](CC(C)C)C(=O)N1CCC[C@H]1C(=O)N[C@@H](Cc1c[nH]c2ccccc12)C(=O)N1CCC[C@H]1C(=O)O` [Compound 13] (Ac-[dD][Orn](Acryloyl)[Nle][Nle]LPWP-OH), the “FXIIIa Inh. Mode” value is recorded as “Rev” and the Selectivity result is recorded as “FXIIIa”. Besides, under setting [1], the Ki stood at 135 ± 16 µM.

In the case of `C=CC(=O)NCCCC[C@H](NC(=O)[C@@H](CC(=O)O)NC(C)=O)C(=O)N[C@@H](CCCC)C(=O)N[C@@H](CCCC)C(=O)N[C@@H](CC(C)C)C(=O)N1CCC[C@H]1C(=O)N[C@@H](Cc1c[nH]c2ccccc12)C(=O)N1CCC[C@H]1C(=O)O` [Compound 14] (Ac-[dD]K(Acryloyl)[Nle][Nle]LPWP-OH), the “FXIIIa Inh. Mode” value is recorded as “Rev” and the Selectivity entry is recorded as “FXIIIa”. Besides, the Ki under setting [1] is 125 ± 20 µM.

With `CCCC[C@H](NC(=O)[C@H](CC=CC(=O)OC)NC(=O)[C@@H](CC(=O)O)NC(C)=O)C(=O)N[C@@H](CCCC)C(=O)N[C@@H](CC(C)C)C(=O)N1CCC[C@H]1C(=O)N[C@@H](Cc1c[nH]c2ccccc12)C(=O)N1CCC[C@H]1C(=O)O` [Compound 45] (Ac-[dD][X3][Nle][Nle]LPWP-OH), the “FXIIIa Inh. Mode” value was “weak reversible inhibition and Rev”; the Selectivity entry is listed as “FXIIIa”. Further, the Ki under setting [1] was determined as 53 ± 12 µM.

Turning to `CCCC[C@H](NC(=O)[C@H](CCCC=CC(=O)OC)NC(=O)[C@@H](CC(=O)O)NC(C)=O)C(=O)N[C@@H](CCCC)C(=O)N[C@@H](CC(C)C)C(=O)N1CCC[C@H]1C(=O)N[C@@H](Cc1c[nH]c2ccccc12)C(=O)N1CCC[C@H]1C(=O)O` [Compound 47] (Ac-[dD][X2][Nle][Nle]LPWP-OH), the “FXIIIa Inh. Mode” value was “reversible and highly potent reversible FXIIIa inhibition and Rev”; the Selectivity result is on record as “Irrev TG2”. The Ki under setting [1] was 0.0941 ± 0.0105 µM.

On to `C=CC(=O)NCC(NC(=O)CC(=O)O)C(=O)N1CCN(S(=O)(=O)c2cccc3c(N(C)C)cccc23)CC1` (centres unmarked) [Compound 71], for which the “FXIIIa Ki” value under setting [2] is reported as “Interference *”.

Turning to `C=CC(=O)NCC(NC(=O)CC(=O)O)C(=O)N1CCN(C(=O)c2cccc3ccccc23)CC1` (centres unmarked) [Compound 72], the Ki under setting [3] worked out at 249 ± 69.3 µM.

In the case of `C=CC(=O)NCC(NC(=O)C1(C(=O)OC)CC1)C(=O)N1CCN(S(=O)(=O)c2cccc3c(N(C)C)cccc23)CC1` (centres unmarked) [Compound 73], the “FXIIIa Ki” value under setting [2] is “Interference *”.

For `C=CC(=O)NCC(NC(=O)C1(C(=O)O)CC1)C(=O)N1CCN(S(=O)(=O)c2cccc3c(N(C)C)cccc23)CC1` [Compound 74, Acid-Cyclopropyl-L-Dap(Acryl)-Piperazine-Dansyl], under setting [2], the “FXIIIa Ki” value is listed as “Interference *”.

As to `C=CC(=O)NCC(NC(=O)CCC(=O)O)C(=O)N1CCN(S(=O)(=O)c2cccc3c(N(C)C)cccc23)CC1` [Compound 75, Succinyl-L-Dap(Acryl)-Piperazine-Dansyl], the “FXIIIa Ki” value under setting [2] was “Interference *”.

On to `C=CC(=O)NCC(NC(=O)CCC(=O)O)C(=O)N1CCN(S(=O)(=O)c2cccc3ccccc23)CC1` [Compound 76, Succinyl-L-Dap(Acryl)-Piperazine-Sulfonyl-Naphthalene], for which the Ki under setting [4] worked out at 64.3 ± 5.1 µM. Further, the “FXIIIa Ki” value under setting [2] is on record as “Interference *”.

Consider `C=CC(=O)NCC(NC(=O)CCC(=O)O)C(=O)N1CCN(C(=O)c2cccc3ccccc23)CC1` [Compound 77, Succinyl-L-Dap(Acryl)-Piperazine-Naphthoyl], for which the Ki under setting [3] was 69 ± 4.1 µM.

Turning to `C=CC(=O)NCC(NS(=O)(=O)CC(=O)O)C(=O)N1CCN(S(=O)(=O)c2cccc3c(N(C)C)cccc23)CC1` (centres unmarked) [Compound 79], the Ki under setting [4] came out at 26.7 ± 1.3 µM. Moreover, the “FXIIIa Ki” value under setting [2] was “Interference *”.

For the compound `C=CC(=O)NC(CNC(=O)CCC(=O)O)C(=O)N1CCN(C(=O)c2cccc3ccccc23)CC1` (centres unmarked) [Compound 84], the Ki under setting [3] was 108 ± 19.1 µM.

In the case of `COC(=O)C=CCCC(NC(=O)CCC(=O)O)C(=O)N1CCN(C(=O)c2cccc3ccccc23)CC1` (centres unmarked) [Compound 87], under setting [3], the Ki amounted to 131 µM.

For the compound `COC(=O)C=CCCC(NC(=O)c1ccccc1C(=O)O)C(=O)N1CCN(C(=O)c2cccc3ccccc23)CC1` (centres unmarked) [Compound 88], under setting [3], the Ki is 265 ± 46.8 µM.

Turning to `CCCC[C@H](NC(=O)[C@H](CC/C=C/C(=O)OC)NC(=O)[C@@H](CC(=O)O)NC(=O)CCCCCNC(=O)[C@@H]1CCCN1C(=O)c1ccccc1-c1c2ccc(=[N+](CC)CC)cc-2oc2cc(N(CC)CC)ccc12)C(=O)N[C@@H](CCCC)C(=O)N[C@@H](CC(C)C)C(=O)N1CCC[C@H]1C(=O)N[C@@H](Cc1c[nH]c2ccccc12)C(=O)N1CCC[C@H]1C(=O)O` [Compound 93] (RhodamineB-P[Ahx][dD][X1][Nle][Nle]LPWP-OH), the “selectivity for FXIIIa over TG2” value is on record as “around 6.5 fold”. Further, the “selectivity for FXIIIa over TG2” value (listed as KM93) stood at 6.5 fold. For the same compound, the kinact/KI (irreversible inhibitors, saturation fit or linear regression) was 2120 M⁻¹ s⁻¹.

Turning to “Ac-D-Asp-Dap(Acrylamide)-Nle-Nle-Leu-Pro-Trp-Pro-OH [Compound 11]”, the “FXIIIa Inh. Mode” value was “complete loss of inhibition; also recorded: no inhibition; also recorded: None *”.
